Data published in patent publication US20090099351A1, “NYLON POLYRIBONUCLEOSIDES” (New York University, priority 2007, published 2009).

Tested on: Phosphodiesterase II (calf spleen phosphodiesterase, CSP)
Assay: Phosphodiesterase II (CSP) controlled exonuclease digestion monitored by MALDI-TOF MS
Format: in vitro ADME
Details: 37° C.; for time for CSP digestion to reach the modified nucleotides: 5′-3′ exonuclease; for degradation of the remaining modified fragment by CSP: after 4 h, fragment starting at modified nucleotides
Procedure: Phosphodiesterase II controlled digestion for ODNs sequencing. The controlled digestion procedure followed slight modification of the reported protocol (Chou et al., 2000). ODN ([…] in 5 μL water) was mixed with phosphodiesterase II (calf spleen phosphodiesterase, CSP) solution (5 milliunits in 5 μL water) and ammonium citrate water solution (1 μL, 50 g/L). After vortex mixing and centrifuge, the mixture was incubated at 37° C. Aliquots (1 μL) were removed after 0.5, 2, 4, 9, 15, 20, 30, 40, 60, 240 min and quickly mixed with trihydroxyacetophenone (THAP, as MALDI-TOF matrix) solution (1 μL, 30 mg in 1 mL methanol) before being placed in dry ice to quench the reaction. All digestion aliquots were spotted on a target and analyzed by MALDI-TOF MS.
To locate the modified regions of nylon nucleic acid, controlled exonuclease digestion was performed on the template-synthesized nylon nucleic acid 3b and 8b with DNA 1 as a control, and monitored as a function of time. Phosphodiesterase II (calf spleen phosphodiesterase, CSP) served as the exonuclease, cleaving from the 5′-terminus. […] In 2 min, the digestion of 3b reached modified nucleotides UnUc. It took 4 min for the digestion of 8b to move to the modified region. […] It has been reported that CSP is inhibited by sugar-modified nucleotides (Pieles et al., 1993) and not by base-modified nucleotides, so these CSP digestion results are consistent with the 2′-ribose modification present in nylon nucleic acids. Furthermore, the sequence information about modified nucleotides from the 5′-end within nylon nucleic acids were also verified.

time for CSP digestion to reach the modified nucleotides	degradation of the remaining modified fragment by CSP	Substance	DNA fragments remaining after CSP digestion (in 1 h)
2 min	no degradation was detected	5′-GCATAGTTUnUcTTGTCTAC [3b]	
4 min	no degradation was detected	5′-GCATAGUcUnnUccUnnUccUnGTCTAC [8b]	
		5′-GCATAGTTTTTTGTCTAC (DNA, backbone and methylation of C not given here) [DNA 1, reference compound]	no DNA fragments longer than trimer were detected
